Test results reported in patent publication US20080031950A1, “Novel anelgesic combination” (NECTID INC., priority 2007, published 2008).
Counter-ions that a name gives are not always drawn.

System: patients suffering from Chronic non-cancer pain (CNCP)
Experiment: Controlled human clinical trial, pain scored by visual analogue scale (VAS)
Assay type: in vivo
Settings: mean ± SD, N = 10
Experimental: A typical study determined the efficacy of tramadol and […] as monotherapy and a combination of naproxen and a slow release tramadol for the treatment of pain and pain related conditions
• Tramadol hydrochloride: Generic Tramadol Hydrochloride tablets 50 mg, • Naproxen: Generic Neproxen tablets 250 mg • Slow Release Tramadol Hydrochloride: a) Example 1, b) Ultram ER 100 mg
• Treatment Drugs per day per patient • 1. Treatment A; Tramadol hydrochloride 100 mg • 2. Treatment B: Naproxen 250 mg • 3. Treatment C: Example 1 • 4. Treatment D: Ultram ER 100 mg+Naproxen 250 mg • 5. Treatment E: Example 2
The administered dosage comprised either tramadol hydrochloride (100 mg) or naproxen 250 mg or a combination of naproxen (250 mg) and slow release tramadol hydrochloride (100 mg) selected from Treatments D or a combination of naproxen 250 mg and a slow release tramadol 100 mg (Treatment C) was administered once a day to the patients in a long-term clinical trial.
40 patients were used in a clinical trial were suffering from Chronic non-cancer pain (CNCP), defined as pain for longer than 6 months, including neuropathic pain, osteoarthritis, rheumatoid arthritis, fibromyalgia, and back and musculoskeletal pain were included in the clinical trial. No effort was made to segregate the patients based on the type of pain nor did we evaluate the extent of pain relief on the basis of pain type.
Those patients with migraines, dental pain, abdominal pains (from chronic pancreatitis, kidney stones, etc.) and ischemic pain from vascular disease were excluded because they are usually not classified as CNCP. Patients with history of addiction (alcohol or drugs) were excluded from the trials
Randomization was performed with computer-generated random numbers in blocks of 10. Randomization codes of the monotherapy or combination therapy treatments were placed in sequentially numbered, opaque, sealed envelopes in the biopsy center.
Pain was assessed using a visual analogue scale (VAS) graded from 0-100 mm. Pain scoring was performed every three hours after drug administration for a total of 48 hours.
The patients were taught with a standard method by the physician how to use a VAS scoring from 0 to 100 mm to grade the intensity of pain experienced during the treatment. On that scale, the left endpoint, 0, was defined as no pain and the right endpoint 100, as the worst pain the patient could imagine. There were no further marks on the line. The intensity of pain was indicated by the distance in millimeters from the left end. Patients were asked to grade the pain intensity immediately after the administration of drugs and every three hour after for 24 hours by drawing a vertical line over each VAS line. The doctors who prescribed the medicines obtained all the VAS forms for that specific patient.
Data are expressed as means±SD. Differences in VAS were analyzed with use of the unpaired Student t test and differences in pain score reductions between the two groups were analyzed with use of the Mann-Whitney U test for the median difference. Similar statistical tests were used for between group comparisons of other outcome variables as appropriate. A two tailed P value of less than. […] SAS software was used for the statistical analysis.
We considered that a clinically significant benefit of using […] and slow release tramadol would be a reduction in the pain score (VAS) of at least 15% compared to the monotherapy with either tramadol hydrochloride or naproxen or placebo. Alternatively, the dose reduction of at least 15% of either NSAID or tramadol when used as combination over the monotherapy as significant benefit

[1] = VAS time 0 hours, scale 0-100 mm

Structure (SMILES)	Pain scored by VAS [1] [mm]	Pain scored by VAS (VAS time 3 hours) [mm]	Pain scored by VAS (VAS time 6 hours) [mm]	Pain scored by VAS (VAS time 9 hours) [mm]	Pain scored by VAS (VAS time 12 hours) [mm]	Pain scored by VAS (VAS time 15 hours) [mm]	Pain scored by VAS (VAS time 18 hours) [mm]	Pain scored by VAS (VAS time 21 hours) [mm]	Pain scored by VAS (VAS time 24 hours) [mm]
COc1ccc2cc([C@H](C)C(=O)O)ccc2c1 [Treatment B, (+)-(S)-2-(6-methoxynaphthalen-2-yl)propanoic acid]	33.9 ± 19.1	18.5 ± 19.1	13.9 ± 21.1	13.8 ± 20.3	14.6 ± 18.6	17.1 ± 21.5	18.9 ± 19.7	20.1 ± 18.3	24.8 ± 20.9
COc1cccc([C@@]2(O)CCCC[C@@H]2CN(C)C)c1 (racemic) [Treatment A, (±) cis-2-[(dimethylamino)methyl]-1-(3-methoxyphenyl)cyclo-hexanol hydrochloride]	32.4 ± 21.2	23.1 ± 20.1	18.8 ± 20.6	14.9 ± 17.2	13.1 ± 21.2	13.9 ± 19.2	15.4 ± 21.3	14.5 ± 19.2	13.9 ± 19.2
